Test results as given in patent US20240270762A1, “PENICILLIN-BINDING PROTEIN INHIBITORS” (priority 2021, published 2024).
Converted amounts (≈) assume the structure as drawn.

How the values were obtained:
[1] = system: A. baumannii 1258916; experiment: microbe, parasite or virus in culture; assay type: cell-based, Acinetobacter baumannii; settings: Acinetobacter baumannii, 1258916, read-out: MIC, A. baumannii 1258916
[2] = system: P. aeruginosa (ΔmexAB-oprM); experiment: Broth microdilution MIC in iron-depleted CAMHB (IDM); assay type: cell-based; settings: Pseudomonas aeruginosa; iron-depleted CAMHB (IDM); […]; read-out: Minimum inhibitory concentration, P. aeruginosa ΔmexAB-oprM
[3] = system: P. aeruginosa ATCC 35151; experiment: microbe, parasite or virus in culture; assay type: cell-based; settings: Pseudomonas aeruginosa, ATCC35151, read-out: Minimum inhibitory concentration, P. aeruginosa ATCC 35151
[4] = system: N. gonorrhoeae WHO Z; experiment: Liquid broth MIC in Fastidious broth; settings: Neisseria gonorrhoeae, read-out: Minimum Inhibitory Concentration (MIC), N. gonorrhoeae WHO Z
[5] = system: N. gonorrhoeae WHO Q; experiment: Liquid broth MIC in Fastidious broth; settings: Neisseria gonorrhoeae, read-out: Minimum Inhibitory Concentration (MIC), N. gonorrhoeae WHO Q
[6] = system: A. baumannii ATCC 19606; experiment: microbe, parasite or virus in culture; assay type: cell-based; settings: Acinetobacter baumannii, ATCC19606, read-out: MIC, A. baumannii ATCC 19606
[7] = system: A. baumannii CDC-0036; experiment: microbe, parasite or virus in culture; assay type: cell-based; settings: Acinetobacter baumannii, CDC0036, read-out: MIC, A. baumannii CDC-0036
[8] = system: N. gonorrhoeae FA1090; experiment: Liquid broth MIC in Fastidious broth; settings: Neisseria gonorrhoeae, FA1090, read-out: Minimum Inhibitory Concentration (MIC), N. gonorrhoeae FA 1090
[9] = system: N. gonorrhoeae WHO L; experiment: Liquid broth MIC in Fastidious broth; settings: Neisseria gonorrhoeae, read-out: Minimum Inhibitory Concentration (MIC), N. gonorrhoeae WHO L
[10] = system: N. gonorrhoeae WHO M; experiment: Liquid broth MIC in Fastidious broth; settings: Neisseria gonorrhoeae, read-out: Minimum Inhibitory Concentration (MIC), N. gonorrhoeae WHO M
[11] = system: A. baumannii CDC-0045; experiment: microbe, parasite or virus in culture; assay type: cell-based; settings: Acinetobacter baumannii, CDC0045, read-out: MIC, A. baumannii CDC-0045
[12] = system: N. gonorrhoeae MS11; experiment: Liquid broth MIC in Fastidious broth; settings: Neisseria gonorrhoeae, MS11, read-out: Minimum Inhibitory Concentration (MIC), N. gonorrhoeae MS11
[13] = system: N. gonorrhoeae WHO K; experiment: Liquid broth MIC in Fastidious broth; settings: Neisseria gonorrhoeae, read-out: Minimum Inhibitory Concentration (MIC), N. gonorrhoeae WHO K

O=C(O)c1c(F)ccc2c1OB(O)[C@@H](NC(=O)C(NC(=O)N1CCN(CCCNC(=O)[C@@H]3CCCN3)C(=O)C1=O)c1cc(F)c(O)c(O)c1Cl)C2 (stereo partly drawn) [Example 212, (3R)-3-(2-(2-chloro-5-fluoro-3,4-dihydroxyphenyl)-2-(2,3-dioxo-4-(3-((S)-pyrrolidine-2-carboxamido)propyl)piperazine-1-carboxamido)acetamido)-7-fluoro-2-hydroxy-3,4-dihydro-2H-benzo[e][1,2]oxaborinine-8-carboxylic acid]
MIC [1]: 2 to 4 µg/mL (≈ 2.71 to 5.43 µM)
MIC [2]: < 1 µg/mL
MIC [3]: < 1 µg/mL
MIC [4]: > 64 µg/mL
MIC [5]: > 64 µg/mL
MIC [6]: < 1 µg/mL
MIC [7]: 8 to 16 µg/mL (≈ 10.9 to 21.7 µM)
MIC [8]: 4 to 8 µg/mL (≈ 5.43 to 10.9 µM)
MIC [9]: > 64 µg/mL
MIC [10]: 16 to 32 µg/mL (≈ 21.7 to 43.4 µM)
MIC [11]: 2 to 4 µg/mL (≈ 2.71 to 5.43 µM)
MIC [12]: 16 to 32 µg/mL (≈ 21.7 to 43.4 µM)
MIC [13]: > 64 µg/mL

O=C(NCCCN1CCN(C(=O)NC(C(=O)N[C@H]2Cc3ccc(F)c(C(=O)O)c3OB2O)c2cc(F)c(O)c(O)c2Cl)C(=O)C1=O)Nc1cccnc1 (stereo partly drawn) [Example 213, (3R)-3-(2-(2-chloro-5-fluoro-3,4-dihydroxyphenyl)-2-(2,3-dioxo-4-(3-(3-(pyridin-3-yl)ureido)propyl)piperazine-1-carboxamido)acetamido)-7-fluoro-2-hydroxy-3,4-dihydro-2H-benzo[e][1,2]oxaborinine-8-carboxylic acid]
MIC [1]: < 1 µg/mL
MIC [2]: < 1 µg/mL
MIC [3]: < 1 µg/mL
MIC [4]: > 64 µg/mL
MIC [5]: > 64 µg/mL
MIC [6]: < 1 µg/mL
MIC [7]: 2 to 4 µg/mL (≈ 2.63 to 5.26 µM)
MIC [8]: 1 to 2 µg/mL (≈ 1.32 to 2.63 µM)
MIC [9]: > 64 µg/mL
MIC [10]: 16 to 32 µg/mL (≈ 21.1 to 42.1 µM)
MIC [11]: 2 to 4 µg/mL (≈ 2.63 to 5.26 µM)
MIC [12]: 16 to 32 µg/mL (≈ 21.1 to 42.1 µM)
MIC [13]: > 64 µg/mL

O=C(NCCN1CCN(C(=O)NC(C(=O)N[C@H]2Cc3ccc(F)c(C(=O)O)c3OB2O)c2cc(F)c(O)c(O)c2Cl)C(=O)C1=O)c1ccc(O)cc1 (stereo partly drawn) [Example 214, (3R)-3-(2-(2-chloro-5-fluoro-3,4-dihydroxyphenyl)-2-(4-(2-(4-hydroxybenzamido)ethyl)-2,3-dioxopiperazine-1-carboxamido)acetamido)-7-fluoro-2-hydroxy-3,4-dihydro-2H-benzo[e][1,2]oxaborinine-8-carboxylic acid]
MIC [1]: 2 to 4 µg/mL (≈ 2.68 to 5.36 µM)
MIC [2]: < 1 µg/mL
MIC [3]: < 1 µg/mL
MIC [4]: 16 to 32 µg/mL (≈ 21.5 to 42.9 µM)
MIC [5]: > 64 µg/mL
MIC [6]: < 1 µg/mL
MIC [7]: 8 to 16 µg/mL (≈ 10.7 to 21.5 µM)
MIC [8]: 1 to 2 µg/mL (≈ 1.34 to 2.68 µM)
MIC [9]: > 64 µg/mL
MIC [10]: 4 to 8 µg/mL (≈ 5.36 to 10.7 µM)
MIC [11]: 2 to 4 µg/mL (≈ 2.68 to 5.36 µM)
MIC [12]: 16 to 32 µg/mL (≈ 21.5 to 42.9 µM)
MIC [13]: > 64 µg/mL

O=C(NCCN1CCN(C(=O)NC(C(=O)N[C@H]2Cc3ccc(F)c(C(=O)O)c3OB2O)c2cc(F)c(O)c(O)c2Cl)C(=O)C1=O)c1cccc(O)c1 (stereo partly drawn) [Example 215, (3R)-3-(2-(2-chloro-5-fluoro-3,4-dihydroxyphenyl)-2-(4-(2-(3-hydroxybenzamido)ethyl)-2,3-dioxopiperazine-1-carboxamido)acetamido)-7-fluoro-2-hydroxy-3,4-dihydro-2H-benzo[e][1,2]oxaborinine-8-carboxylic acid]
MIC [1]: 2 to 4 µg/mL (≈ 2.68 to 5.36 µM)
MIC [2]: < 1 µg/mL
MIC [3]: < 1 µg/mL
MIC [4]: 16 to 32 µg/mL (≈ 21.5 to 42.9 µM)
MIC [5]: > 64 µg/mL
MIC [6]: < 1 µg/mL
MIC [7]: 8 to 16 µg/mL (≈ 10.7 to 21.5 µM)
MIC [8]: 1 to 2 µg/mL (≈ 1.34 to 2.68 µM)
MIC [9]: > 64 µg/mL
MIC [10]: 4 to 8 µg/mL (≈ 5.36 to 10.7 µM)
MIC [11]: 8 to 16 µg/mL (≈ 10.7 to 21.5 µM)
MIC [12]: 16 to 32 µg/mL (≈ 21.5 to 42.9 µM)
MIC [13]: > 64 µg/mL

O=C(NCCN1CCN(C(=O)NC(C(=O)N[C@H]2Cc3ccc(F)c(C(=O)O)c3OB2O)c2cc(F)c(O)c(O)c2Cl)C(=O)C1=O)c1ccncc1 (stereo partly drawn) [Example 216, (3R)-3-(2-(2-chloro-5-fluoro-3,4-dihydroxyphenyl)-2-(4-(2-(isonicotinamido)ethyl)-2,3-dioxopiperazine-1-carboxamido)acetamido)-7-fluoro-2-hydroxy-3,4-dihydro-2H-benzo[e][1,2]oxaborinine-8-carboxylic acid]
MIC [1]: 2 to 4 µg/mL (≈ 2.74 to 5.47 µM)
MIC [2]: < 1 µg/mL
MIC [3]: < 1 µg/mL
MIC [4]: 16 to 32 µg/mL (≈ 21.9 to 43.8 µM)
MIC [5]: 16 to 32 µg/mL (≈ 21.9 to 43.8 µM)
MIC [6]: < 1 µg/mL
MIC [7]: 8 to 16 µg/mL (≈ 10.9 to 21.9 µM)
MIC [8]: 4 to 8 µg/mL (≈ 5.47 to 10.9 µM)
MIC [9]: > 64 µg/mL
MIC [10]: 4 to 8 µg/mL (≈ 5.47 to 10.9 µM)
MIC [11]: 2 to 4 µg/mL (≈ 2.74 to 5.47 µM)
MIC [12]: 16 to 32 µg/mL (≈ 21.9 to 43.8 µM)
MIC [13]: > 64 µg/mL

O=C(NCCN1CCN(C(=O)NC(C(=O)N[C@H]2Cc3ccc(F)c(C(=O)O)c3OB2O)c2cc(F)c(O)c(O)c2Cl)C(=O)C1=O)c1cccnc1 (stereo partly drawn) [Example 217, (3R)-3-(2-(2-chloro-5-fluoro-3,4-dihydroxyphenyl)-2-(4-(2-(nicotinamido)ethyl)-2,3-dioxopiperazine-1-carboxamido)acetamido)-7-fluoro-2-hydroxy-3,4-dihydro-2H-benzo[e][1,2]oxaborinine-8-carboxylic acid]
MIC [1]: 2 to 4 µg/mL (≈ 2.74 to 5.47 µM)
MIC [2]: < 1 µg/mL
MIC [3]: < 1 µg/mL
MIC [4]: 16 to 32 µg/mL (≈ 21.9 to 43.8 µM)
MIC [5]: > 64 µg/mL
MIC [6]: 2 to 4 µg/mL (≈ 2.74 to 5.47 µM)
MIC [7]: 8 to 16 µg/mL (≈ 10.9 to 21.9 µM)
MIC [8]: 1 to 2 µg/mL (≈ 1.37 to 2.74 µM)
MIC [9]: > 64 µg/mL
MIC [10]: 16 to 32 µg/mL (≈ 21.9 to 43.8 µM)
MIC [11]: < 1 µg/mL
MIC [12]: 16 to 32 µg/mL (≈ 21.9 to 43.8 µM)
MIC [13]: > 64 µg/mL

O=C(NCCN1CCN(C(=O)NC(C(=O)N[C@H]2Cc3ccc(F)c(C(=O)O)c3OB2O)c2cc(F)c(O)c(O)c2Cl)C(=O)C1=O)c1nccs1 (stereo partly drawn) [Example 218, (3R)-3-(2-(2-chloro-5-fluoro-3,4-dihydroxyphenyl)-2-(2,3-dioxo-4-(2-(thiazole-2-carboxamido)ethyl)piperazine-1-carboxamido)acetamido)-7-fluoro-2-hydroxy-3,4-dihydro-2H-benzo[e][1,2]oxaborinine-8-carboxylic acid]
MIC [1]: 2 to 4 µg/mL (≈ 2.71 to 5.43 µM)
MIC [2]: < 1 µg/mL
MIC [3]: < 1 µg/mL
MIC [4]: > 64 µg/mL
MIC [5]: > 64 µg/mL
MIC [6]: 2 to 4 µg/mL (≈ 2.71 to 5.43 µM)
MIC [7]: 8 to 16 µg/mL (≈ 10.9 to 21.7 µM)
MIC [8]: 1 to 2 µg/mL (≈ 1.36 to 2.71 µM)
MIC [9]: > 64 µg/mL
MIC [10]: 16 to 32 µg/mL (≈ 21.7 to 43.4 µM)
MIC [11]: 8 to 16 µg/mL (≈ 10.9 to 21.7 µM)
MIC [12]: 16 to 32 µg/mL (≈ 21.7 to 43.4 µM)
MIC [13]: > 64 µg/mL

O=C(NCCN1CCN(C(=O)NC(C(=O)N[C@H]2Cc3ccc(F)c(C(=O)O)c3OB2O)c2cc(F)c(O)c(O)c2Cl)C(=O)C1=O)Nc1ccc(O)cc1 (stereo partly drawn) [Example 219, (3R)-3-(2-(2-chloro-5-fluoro-3,4-dihydroxyphenyl)-2-(4-(2-(3-(4-hydroxyphenyl)ureido)ethyl)-2,3-dioxopiperazine-1-carboxamido)acetamido)-7-fluoro-2-hydroxy-3,4-dihydro-2H-benzo[e][1,2]oxaborinine-8-carboxylic acid]
MIC [1]: 2 to 4 µg/mL (≈ 2.63 to 5.26 µM)
MIC [2]: < 1 µg/mL
MIC [3]: < 1 µg/mL
MIC [4]: 16 to 32 µg/mL (≈ 21 to 42.1 µM)
MIC [5]: > 64 µg/mL
MIC [6]: < 1 µg/mL
MIC [7]: 8 to 16 µg/mL (≈ 10.5 to 21 µM)
MIC [8]: 1 to 2 µg/mL (≈ 1.31 to 2.63 µM)
MIC [9]: > 64 µg/mL
MIC [10]: 4 to 8 µg/mL (≈ 5.26 to 10.5 µM)
MIC [11]: 8 to 16 µg/mL (≈ 10.5 to 21 µM)
MIC [12]: 16 to 32 µg/mL (≈ 21 to 42.1 µM)
MIC [13]: > 64 µg/mL

O=C(NCCN1CCN(C(=O)NC(C(=O)N[C@H]2Cc3ccc(F)c(C(=O)O)c3OB2O)c2cc(F)c(O)c(O)c2Cl)C(=O)C1=O)Nc1cccc(O)c1 (stereo partly drawn) [Example 220, (3R)-3-(2-(2-chloro-5-fluoro-3,4-dihydroxyphenyl)-2-(4-(2-(3-(3-hydroxyphenyl)ureido)ethyl)-2,3-dioxopiperazine-1-carboxamido)acetamido)-7-fluoro-2-hydroxy-3,4-dihydro-2H-benzo[e][1,2]oxaborinine-8-carboxylic acid]
MIC [1]: 2 to 4 µg/mL (≈ 2.63 to 5.26 µM)
MIC [2]: < 1 µg/mL
MIC [3]: < 1 µg/mL
MIC [4]: > 64 µg/mL
MIC [5]: > 64 µg/mL
MIC [6]: < 1 µg/mL
MIC [7]: 8 to 16 µg/mL (≈ 10.5 to 21 µM)
MIC [8]: 1 to 2 µg/mL (≈ 1.31 to 2.63 µM)
MIC [9]: > 64 µg/mL
MIC [10]: 4 to 8 µg/mL (≈ 5.26 to 10.5 µM)
MIC [11]: 2 to 4 µg/mL (≈ 2.63 to 5.26 µM)
MIC [12]: 16 to 32 µg/mL (≈ 21 to 42.1 µM)
MIC [13]: > 64 µg/mL
